Here are results for four compounds from patent publication US6339064B1, “Benzylglycosylamides as inhibitors of smooth muscle cell proliferation” (American Home Products Corporation, priority 1998, dated 2002).

In data set [1] the test system is Porcine Smooth Muscle Cell. The data set can be described thus: Effects of compounds on cell proliferation using 3H thymidine incorporation (porcine smooth muscle cell antiproliferation). The data set is classed as cell-based. Conditions: serum/growth factor stimulated cells, 24-36 h incubation. The protocol:
Effects of Compounds on Cell Proliferation Using ^3H Thymidine Incorporation
Human and porcine smooth muscle cells were tested in early passage (generally passage 3-7) at sub-confluent conditions. Cultures were grown in 16 mm (24 well) multi-well culture dishes in medium 199 supplemented with 10% fetal bovine serum and 2% antibiotic/antimycotic. At sub-confluence, the cells were placed in a defined serum free medium (AIM-V; Gibco) for 24-48 h prior to initiating the experimental protocol.
Compounds were added to each well at 50 fold dilution (20 μL/well) and the plates were incubated for 24-36 h at 37° C. in 5% CO2. Compounds were initially dissolved in 50% ethanol and serially diluted into media. Compounds were routinely evaluated at concentrations from 1 to 100 μM. As a control, grade II porcine intestinal mucosal herapin (sodium salt) was routinely evaluated in all cell preparations at concentrations from 0.1 to 100 μg/mL.
At the completion of the test procedure, plates were placed on ice, washed three times with ice cold phosphate buffered saline (PBS) and incubated in ice cold 10% trichloroacetic acid (TCA) got 30 min to remove acid soluble proteins. Solution was transferred to scintillation vials containing 0.4 N HCl (500 μL/vial to neutralize NaOH) and each well was rinsed two times with water (500 μL) for a total volume of 2 mL/vial.
Data was obtained, in triplicate, for both control and experimental samples. Control (100%) data was obtained from maximally stimulated cells, as the result of growth factor or serum stimulation. Experimental data was obtained from cells maximally stimulated with growth factor or serum and treated with compound. Data are expressed as an IC50 in Table I below.

Consider `CC(=O)OC[C@H]1O[C@@H](NC(=O)c2ccc(Cl)c(N)c2)[C@H](OC(C)=O)[C@@H](OC(C)=O)[C@@H]1O[C@H]1O[C@H](COC(C)=O)[C@@H](OC(C)=O)[C@H](OC(C)=O)[C@H]1OC(C)=O` [Example 2, 3-Amino-4-chloro-N-[2,3,6-tri-O-acetyl-4-O-(2,3,4,6-tetra-O-acetyl-α-D-glucopyranosyl)-β-D-glucopyranosyl}-benzamide], for which the melting point (as a rule, the temperature, or range, at which the solid turns liquid) was in the range of 115 to 119 °C. The IC50 (as a rule, the concentration that gives 50% inhibition) in data set [1] (Sus scrofa) was 11.1 µM. Taken in the same sequence, the figures for `CC(=O)Nc1cc(C(=O)N[C@@H]2O[C@H](COC(C)=O)[C@@H](O[C@H]3O[C@H](COC(C)=O)[C@@H](OC(C)=O)[C@H](OC(C)=O)[C@H]3OC(C)=O)[C@H](OC(C)=O)[C@H]2OC(C)=O)ccc1Cl` [Example 3, 3-(Acetylamino)-4-chloro-N-[2,3,6-tri-O-acetyl-4-O-(2,3,4,6-tetra-O-acetyl-α-D-glucopyranosyl)-β-D-glucopyranosyl}-benzamide] were 122 to 124 °C and 54.3 µM.

`COc1cc(C(=O)N[C@@H]2O[C@H](COC(C)=O)[C@@H](O[C@H]3O[C@H](COC(C)=O)[C@@H](OC(C)=O)[C@H](OC(C)=O)[C@H]3OC(C)=O)[C@H](OC(C)=O)[C@H]2OC(C)=O)ccc1Cl` [Example 22, 4-Chloro-3-methoxy-N-[2,3,6-tri-O-acetyl-4-O-(2,3,4,6-tetra-O-acetyl-α-D-glucopyranosyl)-β-D-glucopyranosyl]benzamide] had a melting point of 106 to 110 °C. Moreover, the 50% inhibitory concentration (IC50) in data set [1] (Sus scrofa) was found to be 18.5 µM. `CC(=O)Nc1cc(C(=O)NC2OC(COC(=O)c3ccccc3)C(OC3OC4COC(c5ccccc5)OC4C(O)C3O)C(O)C2O)ccc1OCCCC#N` [Example 34, 3-Acetylamino-N-(6-O-benzoyl-4′,6′-O-benzylidene-β-D-maltosyl)-4-(4-nitrilo-butoxy)-benzamide]: the IC50 in data set [1] stood at 0.98 µM. This lies in the sub-micromolar range.
